Assay results as given in paper PMC7179312 (Antimicrobial Agents and Chemotherapy, 2020).

What was measured:
[1] = system: P. aeruginosa PAM1154 carrying KPC-2::L169P (PAM4751); test: Checkerboard potentiation of antibiotic activity by BLIs; assay type: cell-based, Pseudomonas aeruginosa; details: for Beta-lactam MIC in the presence of BLI: PAM4751 KPC-2 L169P
Text: BLI potency was defined as PV50 (PV, potentiation value) of antibiotic potentiation. PV50 is the concentration of a BLI that is required to reduce the antibiotic MIC to the middle of the MIC range where the highest MIC is the MIC for a KPC-producing strain with no inhibitor added and the lowest MIC is the MIC for the vector-alone strain, which corresponds to complete inhibition of KPC. As a given MIC is directly related to the β-lactamase activity, PV50 might be considered the concentration of a BLI that is required to achieve half-effect of inhibition of β-lactamase activity (in whole cells) to hydrolyze an antibiotic of interest. […] However, the accurate determination of PV50 requires the MIC range to be relatively wide.
(§1) For microbiological studies, wild-type blaKPC-2 and its mutant variants were cloned into the shuttle vector pUCP24. Resulting plasmids were transformed in the efflux-deficient strain of P. aeruginosa PAM1154 using selection on 15 μg/ml of gentamicin. Using a strain of P. aeruginosa as opposed to E. coli as a host for various cloned genes was based on the following consideration. As well documented elsewhere ([41]), P. aeruginosa has a low-permeability outer membrane; consequently, the effect of β-lactamases on MIC is amplified in P. aeruginosa compared to that in E. coli due to the slowed uptake of β-lactams. Thus, this host is appropriate to detect β-lactamase activity (as an MIC increase) of low-catalytic-efficiency enzymes that rely heavily on low permeability of the outer membrane. […] MICs were determined using the Clinical and Laboratory Standards Institute (CLSI) broth microdilution method as described in CLSI document M07-A11 ([42]). […] BLI potency was defined as PV50 (PV, potentiation value). PV50 is the minimal concentration of a BLI that is required to reduce the antibiotic MIC to the middle of the MIC range (E50) where the highest MIC is the MIC for a KPC-producing strain with no inhibitor added and the lowest MIC is the MIC for the vector-only strain, corresponding to the complete inhibition of KPC. E50 is calculated as the square root of the product of the antibiotic MICs for the KPC-producing and the vector-only strains.
[…]
8 antibiotic MIC values for the beta-lactamas e-producing and the vector onl y strain.

[2] = system: P. aeruginosa PAM1154 carrying pUCP24 vector (PAM4175); test: MIC, CLSI broth microdilution; assay type: cell-based; details: Pseudomonas aeruginosa, drug alone
Text: The effects of KPC mutations on resistance to various antibiotics were investigated. For these studies, pUCP24 plasmids carrying wild-type and mutant blaKPC-2 genes as well as the pUCP24 vector were transformed into PAM1154, an efflux-deficient strain of Pseudomonas aeruginosa. In this host, the effect of β-lactamases on β-lactam MIC is amplified due to the slowed uptake of β-lactams across the low-permeability outer membrane without interference by efflux of either β-lactams or BLIs. Consequently, this host allows detection of β-lactamase activity (as an MIC increase) of low-catalytic-efficiency enzymes that rely heavily on the low permeability of the outer membrane. Using the strain that lacks efflux pumps ensures no interference from efflux in interpreting results. We next evaluated the steady-state protein expression levels in bacterial cells. […] The observed discrepancy with our results could be attributed to the difference in either the expression vector or host bacteria.
For microbiological studies, wild-type blaKPC-2 and its mutant variants were cloned into the shuttle vector pUCP24. Resulting plasmids were transformed in the efflux-deficient strain of P. aeruginosa PAM1154 using selection on 15 μg/ml of gentamicin. Using a strain of P. aeruginosa as opposed to E. coli as a host for various cloned genes was based on the following consideration. As well documented elsewhere ([41]), P. aeruginosa has a low-permeability outer membrane; consequently, the effect of β-lactamases on MIC is amplified in P. aeruginosa compared to that in E. coli due to the slowed uptake of β-lactams. Thus, this host is appropriate to detect β-lactamase activity (as an MIC increase) of low-catalytic-efficiency enzymes that rely heavily on low permeability of the outer membrane. […] MICs were determined using the Clinical and Laboratory Standards Institute (CLSI) broth microdilution method as described in CLSI document M07-A11 ([42]). Potentiation of antibiotic activity by various BLIs in bacterial strains carrying wild-type (WT) and mutant KPC-2 genes was performed using standard checkerboard methodology ([43]). BLI potency was defined as PV50 (PV, potentiation value). PV50 is the minimal concentration of a BLI that is required to reduce the antibiotic MIC to the middle of the MIC range (E50) where the highest MIC is the MIC for a KPC-producing strain with no inhibitor added and the lowest MIC is the MIC for the vector-only strain, corresponding to the complete inhibition of KPC. E50 is calculated as the square root of the product of the antibiotic MICs for the KPC-producing and the vector-only strains.

[3] = system: P. aeruginosa PAM1154 carrying pUCP24-KPC-2::L169P (PAM4751); test: MIC, CLSI broth microdilution; assay type: cell-based, Pseudomonas aeruginosa; details: for MIC: Pseudomonas aeruginosa, PAM4751, pUCP24-KPC-2::L169P, drug alone
Text: (§2) The effects of KPC mutations on resistance to various antibiotics were investigated. For these studies, pUCP24 plasmids carrying wild-type and mutant blaKPC-2 genes as well as the pUCP24 vector were transformed into PAM1154, an efflux-deficient strain of Pseudomonas aeruginosa. In this host, the effect of β-lactamases on β-lactam MIC is amplified due to the slowed uptake of β-lactams across the low-permeability outer membrane without interference by efflux of either β-lactams or BLIs. Consequently, this host allows detection of β-lactamase activity (as an MIC increase) of low-catalytic-efficiency enzymes that rely heavily on the low permeability of the outer membrane. Using the strain that lacks efflux pumps ensures no interference from efflux in interpreting results. We next evaluated the steady-state protein expression levels in bacterial cells.
as §1

[4] = system: P. aeruginosa PAM1154 carrying pUCP24-KPC-2::D179Y (PAM4639); test: MIC, CLSI broth microdilution; assay type: cell-based, Pseudomonas aeruginosa; details: for MIC: Pseudomonas aeruginosa, PAM4639, pUCP24-KPC-2::D179Y, drug alone
Text: as §2, §1

[5] = system: P. aeruginosa PAM1154 carrying pUCP24-KPC-2 (PAM4135); test: MIC, CLSI broth microdilution; assay type: cell-based; details: Pseudomonas aeruginosa; PAM4135, pUCP24-KPC-2; drug alone
Text: as §2, §1

CO/N=C(\C(=O)N[C@@H]1C(=O)N2C(C(=O)[O-])=C(C[N+]3(C)CCCC3)CS[C@H]12)c1csc(N)n1 [Cefepime, cefepime]
Antibiotic MIC with avibactam at 4 μg/ml ([1]; PAM4751 KPC-2::L169P, avibactam 4 μg/ml): 0.5 µg/mL
Antibiotic MIC, No BLI ([1]; PAM4751 KPC-2::L169P, no BLI): 32 µg/mL
Beta-lactam MIC in the presence of BLI ([1]; avibactam 0 µg/ml): 32 µg/mL
Beta-lactam MIC in the presence of BLI ([1]; avibactam 0.008 µg/ml): 32 µg/mL
Beta-lactam MIC in the presence of BLI ([1]; avibactam 0.031 µg/ml): 32 µg/mL
Beta-lactam MIC in the presence of BLI ([1]; avibactam 0.06 µg/ml): 32 µg/mL
Beta-lactam MIC in the presence of BLI ([1]; avibactam 0.5 µg/ml): 4 µg/mL
Beta-lactam MIC in the presence of BLI ([1]; avibactam 1 µg/ml): 2 µg/mL
Beta-lactam MIC in the presence of BLI ([1]; avibactam 2 µg/ml): 1 µg/mL
Beta-lactam MIC in the presence of BLI ([1]; avibactam 4 µg/ml): 0.5 µg/mL
Beta-lactam MIC in the presence of BLI ([1]; vaborbactam 0 µg/ml): 32 µg/mL
Beta-lactam MIC in the presence of BLI ([1]; vaborbactam 0.008 µg/ml): 32 µg/mL
Beta-lactam MIC in the presence of BLI ([1]; vaborbactam 0.031 µg/ml): 32 µg/mL
Beta-lactam MIC in the presence of BLI ([1]; vaborbactam 0.06 µg/ml): 32 µg/mL
Beta-lactam MIC in the presence of BLI ([1]; vaborbactam 0.5 µg/ml): 4 µg/mL
Beta-lactam MIC in the presence of BLI ([1]; vaborbactam 1 µg/ml): 0.5 µg/mL
MIC [2]: 0.125 µg/mL
reduction of MIC vs wild-type KPC-2 strain ([3]; L169P strain): 4 fold
MIC [3]: 64 µg/mL
increase of MIC vs vector-only strain ([3]; {}): 512 fold
reduction of MIC vs wild-type KPC-2 strain ([4]; D179Y strain): 4 fold
MIC [4]: 64 µg/mL
increase of MIC vs vector-only strain ([4]; {}): 512 fold
MIC [5]: 256 µg/mL

O=C(O)C[C@@H]1CC[C@H](NC(=O)Cc2cccs2)B(O)O1 [Vaborbactam, vaborbactam]
reduction of potency to enhance ceftazidime, cefepime or piperacillin vs wild-type KPC-2 ([1]; L169P, depending on the antibiotic): no more than 2 fold
PV50 ([1]; PAM4751 KPC-2::L169P, potentiation of cefepime): 1 µg/mL
PV50 ([1]; PAM4751 KPC-2::L169P, potentiation of ceftazidime): 1 µg/mL
PV50 ([1]; PAM4751 KPC-2::L169P, potentiation of piperacillin): 1 µg/mL
MIC [2]: > 256 µg/mL
MIC [3]: > 256 µg/mL
MIC [4]: > 256 µg/mL
MIC [5]: > 256 µg/mL
